Source: patent publication US9919998B2, “Antibacterial agents: Nα-aroyl-N-aryl-phenylalaninamides” (priority 2014, dated 2018)
≈ marks a conversion by molar mass, not a printed value.

Legend:
[1] = test system: Mycobacterium tuberculosis H37Rv; test: Microplate Alamar Blue assay (MABA) MIC, M. tuberculosis; format: cell-based; conditions: read-out: MIC Mycobacterium tuberculosis H37Rv
From the text: (§1) Minimal inhibitory concentrations (MICs) in Mycobacterium tuberculosis H37Rv and Mycobacterium avium ATCC 25291 were quantified using microplate Alamar Blue assays as described (MABA; [Collins, L. & Franzblau, S. (1997) Microplate Alamar Blue assay versus BACTEC 460 system for high-throughput screening of compounds against Mycobacterium tuberculosis and Mycobacterium avium. Antimicrob. Agents Chemother. 41, 1004-1009]).

[2] = test system: Vero E6 ATCC CRL1586 cells; test: Mammalian-cell cytotoxicity, minimal cytotoxic concentration (CellTiter96); format: cell-based
Method: Minimal cytotoxic concentrations (MCCs) against mammalian cells in culture were determined using Vero E6 ATCC CRL1586 cells and the CellTiter96 assay kit (Promega, Inc.). […]

[3] = test system: rifampin-resistant mutants, derivatives of M. smegmatis ATCC19420; test: MICs in rifampin-resistant mutants (cross-resistance levels); format: cell-based, Mycobacterium smegmatis
From the text: (§2) MICs in Mycobacterium smegmatis ATCC 19420 and Mycobacterium smegmatis ATCC 19420 derivatives were quantified using broth microdilution assays as described [Clinical and Laboratory Standards Institute (CLSI/NCCLS) (2009) Methods for Dilution Antimicrobial Susceptibility Tests for Bacteria That Grow Aerobically; Approved Standard, Eighth Edition. CLIS Document M07-A8 (CLIS, Wayne Pa.)].

[4] = test system: Mycobacterium smegmatis ATCC 19420; test: Broth microdilution MIC, M. smegmatis; format: cell-based; conditions: Mycolicibacterium smegmatis, ATCC19420, M. smegmatis ATCC 19420; read-out: MIC Mycobacterium smegmatis ATCC 19420
From the text: as §2

[5] = test system: Mycobacterium avium ATCC 25291; test: Microplate Alamar Blue assay (MABA) MIC, M. avium; format: cell-based; conditions: ATCC25291, M. avium ATCC 25291
From the text: as §1

| Structure (SMILES) | MIC [1] | MCC mammalian cells Vero E6 ATCC CRL1586 [2] | cross-resistance of rifampin-resistant mutants to the compound [3] | MIC [4] | MIC [5] |
| --- | --- | --- | --- | --- | --- |
| COc1ccccc1C(=O)NC(Cc1ccccc1)C(=O)Nc1ccccc1C (stereo not shown) [I-25] | > 50 µg/mL | 57 µg/mL | No rifampin-resistant mutant was found to exhibit cross-resistance | 6.25 µg/mL (≈ 16.1 µM) | – |
| Cc1ccc(Br)cc1NC(=O)C(Cc1ccccc1)NC(=O)c1ccccc1 (stereo not shown) [I-97] | 25 µg/mL (≈ 57.2 µM) | – | No rifampin-resistant mutant was found to exhibit cross-resistance | 0.78 µg/mL (≈ 1.78 µM) | > 50 µg/mL |
| Cc1ccccc1NC(=O)C(Cc1ccccc1)NC(=O)c1ccccc1Br (stereo not shown) [I-102] | > 50 µg/mL | 29 µg/mL | No rifampin-resistant mutant was found to exhibit cross-resistance | 3.12 µg/mL (≈ 7.15 µM) | – |
| Cn1nnc2cccc(NC(=O)C(Cc3ccccc3)NC(=O)c3ccccc3)c21 (stereo not shown) [IX-224, N-(1-((1-methyl-1H-benzo[d][1,2,3]triazol-7-yl)amino)-1-oxo-3-phenylpropan-2-yl)benzamide] | 6.25 µg/mL (≈ 15.6 µM) | >100 µg/mL | – | 0.39 µg/mL (≈ 0.976 µM) | 25 µg/mL (≈ 62.6 µM) |
| Cn1ncc2c(NC(=O)C(Cc3ccccc3)NC(=O)c3ccccc3)cccc21 (stereo not shown) [IX-225, N-(1-((1-methyl-1H-indazol-4-yl)amino)-1-oxo-3-phenylpropan-2-yl)benzamide] | 1.56 µg/mL (≈ 3.92 µM) | 45 µg/mL | – | 0.195 µg/mL (≈ 0.489 µM) | 1.56 µg/mL (≈ 3.92 µM) |
| O=C(NC(Cc1ccccc1)C(=O)Nc1cccc2nc[nH]c12)c1ccccc1 (stereo not shown) [IX-230, N-(1-((1H-benzo[d]imidazol-7-yl)amino)-1-oxo-3-phenylpropan-2-yl)benzamide] | 50 µg/mL (≈ 130 µM) | 84 µg/mL | – | 0.39 µg/mL (≈ 1.01 µM) | 25 µg/mL (≈ 65 µM) |
| Cn1ccc2cccc(NC(=O)C(Cc3ccccc3)NC(=O)c3ccccc3)c21 (stereo not shown) [IX-231, N-(1-((1-methyl-1H-indol-7-yl)amino)-1-oxo-3-phenylpropan-2-yl)benzamide] | 25 µg/mL (≈ 62.9 µM) | >100 µg/mL | – | 1.56 µg/mL (≈ 3.92 µM) | > 50 µg/mL |
| Cn1cnc2cccc(NC(=O)C(Cc3ccccc3)NC(=O)c3ccccc3)c21 (stereo not shown) [IX-232, N-(1-((1-methyl-1H-benzo[d]imidazol-7-yl)amino)-1-oxo-3-phenyl-propan-2-yl)benzamide] | 25 µg/mL (≈ 62.7 µM) | 96 µg/mL | – | 1.56 µg/mL (≈ 3.92 µM) | 25 µg/mL (≈ 62.7 µM) |
| O=C(NC(Cc1ccccc1)C(=O)Nc1cccc2ncsc12)c1ccccc1 (stereo not shown) [IX-234, N-(1-(benzo[d]thiazol-7-ylamino)-1-oxo-3-phenylpropan-2-yl)benz-amide] | 3.12 µg/mL (≈ 7.78 µM) | 80 µg/mL | – | 0.39 µg/mL (≈ 0.971 µM) | 3.12 µg/mL (≈ 7.78 µM) |
| O=C(NC(Cc1ccccc1)C(=O)Nc1cccc2[nH]ncc12)c1cccc2[nH]ccc12 (stereo not shown) [IX-241, N-(1-((1H-indazol-4-yl)amino)-1-oxo-3-phenylpropan-2-yl)-1H-indole-4-carboxamide] | 25 µg/mL (≈ 59 µM) | 36 µg/mL | – | 0.78 µg/mL (≈ 1.84 µM) | 12.5 µg/mL (≈ 29.5 µM) |
| O=C(NC(Cc1ccccc1)C(=O)Nc1ccccc1N1CCNCC1)c1cccc2[nH]ccc12 (stereo not shown) [IX-242, N-(1-oxo-3-phenyl-1-((2-(piperazin-1-yl)phenyl)amino)propan-2-yl)-1H-indole-4-carboxamide] | 3.12 µg/mL (≈ 6.68 µM) | 12 µg/mL | – | 0.04 µg/mL (≈ 0.0855 µM) | 0.78 µg/mL (≈ 1.67 µM) |
| O=C(NC(Cc1ccccc1)C(=O)Nc1cc(F)ccc1N1CCNCC1)c1cccc2[nH]ccc12 (stereo not shown) [IX-243] | 6.25 µg/mL (≈ 12.9 µM) | 11 µg/mL | – | 0.19 µg/mL (≈ 0.391 µM) | 0.78 µg/mL (≈ 1.61 µM) |
| COc1ccc(F)cc1NC(=O)C(Cc1ccccc1)NC(=O)c1cccc2[nH]ccc12 (stereo not shown) [IX-244, N-(1-((5-fluoro-2-methoxyphenyl)amino)-1-oxo-3-phenylpropan-2-yl)-1H-indole-4-carboxamide] | 6.25 µg/mL (≈ 14.5 µM) | 58 µg/mL | – | 0.78 µg/mL (≈ 1.81 µM) | 3.12 µg/mL (≈ 7.24 µM) |
| O=C(NC(Cc1ccc(O)cc1)C(=O)Nc1cc(F)ccc1N1CCNCC1)c1ccccc1 (stereo not shown) [IX-246, N-(1-((5-fluoro-2-(piperazin-1-yl)phenyl)amino)-3-(4-hydroxy-phenyl)-1-oxopropan-2-yl)benzamide] | 3.12 µg/mL (≈ 6.76 µM) | 34 µg/mL | – | 0.195 µg/mL (≈ 0.422 µM) | 0.78 µg/mL (≈ 1.69 µM) |
| CC1CN(c2ccccc2NC(=O)C(Cc2ccccc2)NC(=O)c2ccccc2)CC(C)O1 (stereo not shown) [IX-265, N-(1-((2-(2,6-dimethylmorpholino)phenyl)amino)-1-oxo-3-phenyl-propan-2-yl)benzamide] | 6.25 µg/mL (≈ 13.7 µM) | >100 µg/mL | – | 1.56 µg/mL (≈ 3.41 µM) | 6.25 µg/mL (≈ 13.7 µM) |
| CC1CN(c2ccccc2NC(=O)C(Cc2ccc(O)cc2)NC(=O)c2ccccc2)CC(C)O1 (stereo not shown) [IX-266, N-(1-((2-(2,6-dimethylmorpholino)phenyl)amino)-3-(4-hydroxy-phenyl)-1-oxopropan-2-yl)benzamide] | 6.25 µg/mL (≈ 13.2 µM) | 71 µg/mL | – | 1.56 µg/mL (≈ 3.29 µM) | 6.25 µg/mL (≈ 13.2 µM) |
| COc1ccc(Cl)cc1NC(=O)C(Cc1ccccc1)NC(=O)c1ccccc1F (stereo not shown) [IX-278, N-(1-((5-chloro-2-methoxyphenyl)amino)-1-oxo-3-phenylpropan-2-yl)-2-fluorobenzamide] | 0.78 µg/mL (≈ 1.83 µM) | 29 µg/mL | – | 0.39 µg/mL (≈ 0.914 µM) | 2.3 µg/mL (≈ 5.39 µM) |
| COc1ccc(Cl)cc1NC(=O)C(Cc1ccccc1)NC(=O)c1ccccc1C (stereo not shown) [IX-279, N-(1-((5-chloro-2-methoxyphenyl)amino)-1-oxo-3-phenylpropan-2-yl)-2-methylbenzamide] | 0.78 µg/mL (≈ 1.84 µM) | 87 µg/mL | – | 1.56 µg/mL (≈ 3.69 µM) | 0.78 µg/mL (≈ 1.84 µM) |
| O=C(NC(Cc1ccccc1)C(=O)Nc1cccc2nc[nH]c12)c1ccccc1F (stereo not shown) [IX-280, N-(1-((1H-benzo[d]imidazol-7-yl)amino)-1-oxo-3-phenylpropan-2-yl)-2-fluorobenzamide] | 12.5 µg/mL (≈ 31.1 µM) | 78 µg/mL | – | 1.56 µg/mL (≈ 3.88 µM) | 25 µg/mL (≈ 62.1 µM) |
| Cc1ccccc1C(=O)NC(Cc1ccccc1)C(=O)Nc1cccc2nc[nH]c12 (stereo not shown) [IX-281, N-(1-((1H-benzo[d]imidazol-7-yl)amino)-1-oxo-3-phenylpropan-2-yl)-2-methylbenzamide] | 12.5 µg/mL (≈ 31.4 µM) | 92 µg/mL | – | 0.78 µg/mL (≈ 1.96 µM) | 12.5 µg/mL (≈ 31.4 µM) |
| Cc1ccccc1C(=O)NC(Cc1ccccc1)C(=O)Nc1cccc2c1cnn2C (stereo not shown) [IX-297, 2-methyl-N-(1-((1-methyl-1H-indazol-4-yl)amino)-1-oxo-3-phenyl-propan-2-yl)benzamide] | 12.5 µg/mL (≈ 30.3 µM) | >100 µg/mL | – | 0.78 µg/mL (≈ 1.89 µM) | 12.5 µg/mL (≈ 30.3 µM) |
| CC(=O)N1CCCN(c2ccc(F)cc2NC(=O)C(Cc2ccccc2)NC(=O)c2ccccc2F)CC1 (stereo not shown) [IX-319, N-(1-((2-(4-acetyl-1,4-diazepan-1-yl)-5-fluorophenyl)amino)-1-oxo-3-phenylpropan-2-yl)-2-fluorobenzamide] | 3.12 µg/mL (≈ 6 µM) | >100 µg/mL | – | 0.39 µg/mL (≈ 0.749 µM) | 6.25 µg/mL (≈ 12 µM) |
